ChEMBL document CHEMBL5046261, “Flavonostilbenes Isolated from the Stems of Rhamnoneuron balansae as Potential SIRT1 Activators” (J Nat Prod, 2022)
The source made the active and inactive calls. The rule behind the calls is not given here.

How the values were obtained:
HEK293 = assay: Cytotoxicity against human HEK293 cells assessed as cell viability at 20 uM measured after 24 hrs by MTT assay; type: toxicity, cell-based; conditions: hek293, 24 h
C2C12 [1] = assay: Cytotoxicity against mouse C2C12 myotubes assessed as cell viability at 10 to 40 uM measured after 24 hrs by MTT assay; type: toxicity, cell-based; conditions: c2c12, 24 h, dose 10-40 µM
C2C12 [2] = assay: Effect on AMPK in mouse C2C12 myotubes assessed as increase in AMPK-alpha phosphorylation at Thr172 at 5 to 10 uM measured after 1 hrs by western blot analysis; type: functional, cell-based; conditions: dose 5-10 µM
[3] = biological target: T1, NAD-dependent protein deacetylase sirtuin-1 (Homo sapiens) (UniProt Q96EB6); assay: Activation of SIRT1 (unknown origin) expressed in human HEK293 cells assessed as decrease in p53 transcriptional activity at 20 uM measured after 24 hrs by luciferase reporter gene assay; type: cell-based; conditions: filed as activator
T1 sequence (whole entry): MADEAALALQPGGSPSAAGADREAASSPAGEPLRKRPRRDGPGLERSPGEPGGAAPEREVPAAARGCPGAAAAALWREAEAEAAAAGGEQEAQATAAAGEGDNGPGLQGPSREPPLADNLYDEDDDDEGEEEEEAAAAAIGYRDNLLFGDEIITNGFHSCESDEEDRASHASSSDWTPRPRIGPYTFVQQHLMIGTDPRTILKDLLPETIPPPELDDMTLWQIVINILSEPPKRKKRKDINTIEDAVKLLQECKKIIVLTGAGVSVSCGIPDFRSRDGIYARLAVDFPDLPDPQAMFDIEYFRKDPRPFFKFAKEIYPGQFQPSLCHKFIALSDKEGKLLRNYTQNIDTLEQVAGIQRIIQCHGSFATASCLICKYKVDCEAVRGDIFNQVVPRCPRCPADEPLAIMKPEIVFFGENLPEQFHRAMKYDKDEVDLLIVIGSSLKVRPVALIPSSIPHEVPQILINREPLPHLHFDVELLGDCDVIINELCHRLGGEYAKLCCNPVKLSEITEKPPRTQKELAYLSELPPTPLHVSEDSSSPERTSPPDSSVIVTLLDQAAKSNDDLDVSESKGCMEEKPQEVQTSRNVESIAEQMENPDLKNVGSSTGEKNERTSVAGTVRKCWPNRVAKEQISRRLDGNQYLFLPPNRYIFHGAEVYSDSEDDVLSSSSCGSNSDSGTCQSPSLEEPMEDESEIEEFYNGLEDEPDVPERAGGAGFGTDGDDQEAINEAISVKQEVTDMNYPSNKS

[4] = biological target: T1, NAD-dependent protein deacetylase sirtuin-1 (Homo sapiens); assay: Activation of SIRT1 (unknown origin) expressed in human HEK293 cells assessed as increase intracellular NAD+ level at 20 uM in presence of NAD+ as substrate incubated for 12 hrs by NAD+/NADH assay based fluorescence microplate reader; type: cell-based; conditions: filed as activator
[5] = biological target: T1, NAD-dependent protein deacetylase sirtuin-1 (Homo sapiens); assay: Activation of SIRT1 (unknown origin) expressed in human HEK293 cells assessed as decrease in luciferase activity at 5 uM measured after 24 hrs by luciferase reporter gene assay; type: cell-based; conditions: filed as activator
[6] = biological target: T1, NAD-dependent protein deacetylase sirtuin-1 (Homo sapiens); assay: Activation of SIRT1 (unknown origin) expressed in human HEK293 cells assessed as increase in deacetylase activity from 1.25 to 20 uM measured after 24 hrs by luciferase reporter gene assay; type: cell-based; conditions: filed as activator, dose 1.25-20 µM
[7] = biological target: T1, NAD-dependent protein deacetylase sirtuin-1 (Homo sapiens); assay: Activation of SIRT1 (unknown origin) expressed in human HEK293 cells assessed as increase intracellular NAD+ level at 10 uM in presence of NAD+ as substrate incubated for 12 hrs by NAD+/NADH assay based fluorescence microplate reader; type: cell-based; conditions: filed as activator
[8] = biological target: T1, NAD-dependent protein deacetylase sirtuin-1 (Homo sapiens); assay: Activation of SIRT1 (unknown origin) expressed in human HEK293 cells assessed as increase in NAD+/NADH ratio at 10 to 40 uM in presence of NAD+ as substrate incubated for 12 hrs by NAD+/NADH assay based fluorescence microplate reader; type: cell-based; conditions: filed as activator, dose 10-40 µM
[9] = biological target: T1, NAD-dependent protein deacetylase sirtuin-1 (Homo sapiens); assay: Activation of SIRT1 (unknown origin) expressed in human HEK293 cells assessed as decrease in luciferase activity at 20 uM measured after 24 hrs by luciferase reporter gene assay; type: cell-based; conditions: filed as activator
C2C12 [10] = assay: Effect on AMPK in mouse C2C12 myotubes assessed as increase in AMPK-alpha phosphorylation at Thr172 at 1 mM measured after 1 hrs by western blot analysis; type: functional, cell-based

Compound	Activity (HEK293)	Activity [3]	other results
O=c1c(O)c(-c2ccc(O)cc2)oc2c3c(cc(O)c12)O[C@@H](c1ccc(O)cc1)[C@H]3c1cc(O)cc(O)c1	Non-Toxic		
O=c1c(O)c(-c2ccc(O)cc2)oc2cc3c(c(O)c12)[C@@H](c1cc(O)cc(O)c1)[C@@H](c1ccc(O)cc1)O3	Non-Toxic		
O=c1c(O)c(-c2ccc(O)cc2)oc2cc3c(c(O)c12)[C@@H](c1cc(O)cc(O)c1)[C@H](c1ccc(O)cc1)O3	Non-Toxic		
O=c1c(O)c(-c2cc(O)c(O)c(O)c2)oc2c3c(cc(O)c12)O[C@H](c1ccc(O)cc1)[C@H]3c1cc(O)cc(O)c1	Non-Toxic		
O=c1c(O)c(-c2ccc(O)c(O)c2)oc2cc3c(c(O)c12)[C@@H](c1cc(O)cc(O)c1)[C@H](c1ccc(O)cc1)O3	Non-Toxic		
O=C1c2c(O)cc(O)c(-c3cc(/C=C/c4cc(O)cc(O)c4)ccc3O)c2O[C@H](c2ccc(O)cc2)[C@H]1O	Non-Toxic	Active	Activity (C2C12 [1]): Non-Toxic; Activity (C2C12 [2]): Active; Activity [4]: Active; Activity [5]: Active; Activity [6]: Dose-Dependent Effect; Activity [7]: Active
Oc1ccc(/C=C/c2cc(O)cc(O)c2)cc1			Activity [8]: Dose-Dependent Effect; Activity [9]: Active
O=C1c2c(cc(O)c(-c3cc(/C=C/c4cc(O)cc(O)c4)ccc3O)c2O)O[C@H](c2ccc(O)c(O)c2)[C@H]1O	Non-Toxic	Active	
O=c1c(O)c(-c2ccc(O)cc2)oc2c(-c3cc(/C=C/c4cc(O)cc(O)c4)ccc3O)c(O)cc(O)c12	Non-Toxic	Active	
NC(=O)c1ncn([C@@H]2O[C@H](CO)[C@@H](O)[C@H]2O)c1N			Activity (C2C12 [10]): Active
O=c1c(O)c(-c2ccc(O)c(O)c2)oc2c(-c3cc(/C=C/c4cc(O)cc(O)c4)ccc3O)c(O)cc(O)c12	Non-Toxic	Active	
O=c1c(O)c(-c2ccc(O)cc2)oc2cc(O)c(-c3cc(/C=C/c4cc(O)cc(O)c4)ccc3O)c(O)c12	Non-Toxic	Active	
O=C1c2c(O)cc3c(c2O[C@@H](c2ccc(O)cc2)[C@@H]1O)[C@H](c1cc(O)cc(O)c1)[C@@H](c1ccc(O)cc1)O3	Non-Toxic		
